Measurements published in US10039758B2 (priority 2014, dated 2018).
“Also recorded” adds a separate entry of the source. Like-named read-outs stand apart in the source and are kept apart here.

Assays:
[1] = tested on: Human Cytomegalovirus (CMV Strain AD169); settings: Human Cytomegalovirus assay
[2] = in vitro; settings: human
[3] = in vitro; settings: human; remark: listed apart in the source
[4] = tested on: Respiratory syncytial virus (RSV): Strain A-2; experiment: microbe, parasite or virus in culture; assay type: cell-based; settings: human respiratory syncytial virus, HEp-2
[5] = biological target: cathepsin B (Homo sapiens, UniProt P07858); assay type: binding
[6] = tested on: PA+FP59, RAW264.7 cells; assay type: cell-based, mouse
[7] = tested on: Chikungunya virus (CHIV); experiment: microbe, parasite or virus in culture; settings: HFF-1
[8] = biological target: T1, cathepsin B (Mus musculus, UniProt P10605); assay type: biochemical; settings: RAW264.7 lysate, 4-66 uM (FIG. 18)
T1 sequence (P10605 80-333): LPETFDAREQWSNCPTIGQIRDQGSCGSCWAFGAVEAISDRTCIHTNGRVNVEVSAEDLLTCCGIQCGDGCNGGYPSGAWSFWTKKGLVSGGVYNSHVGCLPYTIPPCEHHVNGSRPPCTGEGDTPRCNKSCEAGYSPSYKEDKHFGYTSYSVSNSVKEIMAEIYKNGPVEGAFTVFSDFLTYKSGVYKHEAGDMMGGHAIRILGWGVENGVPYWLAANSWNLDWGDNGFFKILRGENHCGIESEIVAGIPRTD

[9] = biological target: purified human cathepsin B (Homo sapiens, UniProt P07858); assay type: biochemical; settings: 4, 8, 16, 33, 66 uM, without drug pre-incubation (FIG. 16)
[10] = tested on: caspase-1; assay type: cell-based, mouse
[11] = tested on: MEK2; assay type: cell-based, mouse
[12] = tested on: Ebola virus; settings: cited from earlier work
[13] = biological target: LF (Bacillus anthracis, UniProt P15917); assay type: biochemical
Sequence of LF (P15917 34-809 limits assumed): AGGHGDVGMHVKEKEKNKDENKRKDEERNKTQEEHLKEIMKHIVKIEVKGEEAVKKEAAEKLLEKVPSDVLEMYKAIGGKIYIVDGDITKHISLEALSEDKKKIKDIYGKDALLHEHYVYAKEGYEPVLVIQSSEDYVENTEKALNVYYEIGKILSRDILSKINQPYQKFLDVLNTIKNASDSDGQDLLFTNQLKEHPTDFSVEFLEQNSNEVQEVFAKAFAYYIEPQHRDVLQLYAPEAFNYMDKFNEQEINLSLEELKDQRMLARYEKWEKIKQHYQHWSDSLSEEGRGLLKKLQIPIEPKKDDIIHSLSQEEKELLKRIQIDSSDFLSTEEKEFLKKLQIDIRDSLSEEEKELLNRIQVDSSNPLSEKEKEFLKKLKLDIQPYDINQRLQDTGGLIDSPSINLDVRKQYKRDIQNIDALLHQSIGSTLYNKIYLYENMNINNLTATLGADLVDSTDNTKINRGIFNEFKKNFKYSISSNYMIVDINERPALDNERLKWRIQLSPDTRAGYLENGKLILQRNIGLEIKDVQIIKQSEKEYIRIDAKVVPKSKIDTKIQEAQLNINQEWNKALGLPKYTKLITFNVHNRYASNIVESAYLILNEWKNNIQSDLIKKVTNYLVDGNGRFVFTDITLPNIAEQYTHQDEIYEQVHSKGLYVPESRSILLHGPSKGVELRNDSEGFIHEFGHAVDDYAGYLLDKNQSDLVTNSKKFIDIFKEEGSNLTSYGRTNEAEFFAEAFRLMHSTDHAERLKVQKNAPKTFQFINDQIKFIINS

[14] = in vitro
[15] = tested on: Clostridium difficile Toxin B, RAW264.7 cells
[16] = tested on: acidic organelles; assay type: cell-based, mouse; settings: RAW264.7, AQ 1 hour, 500 ng/ml PA 1 hour
[17] = biological target: T1, cathepsin B; assay type: cell-based; settings: RAW264.7, 4-66 uM, 1 hour before lysis (FIG. 17)
[18] = tested on: anthrax lethal toxin (LF-PA), RAW264.7 cells; assay type: cell-based, mouse
[19] = tested on: PA; assay type: cell-based, mouse
[20] = tested on: diphtheria toxin, C32 human melanoma cell line; assay type: cell-based
[21] = tested on: Ebola virus (Kikwit); experiment: microbe, parasite or virus in culture; assay type: cell-based; settings: Zaire ebolavirus, HeLa, 48 h
[22] = tested on: anthrax toxin (12 μg LF + 40 μg PA); design: species or system Sprague-Dawley rats; settings: rat, in vivo
[23] = tested on: endosomal acidification; settings: cited from earlier work
[24] = tested on: host lysosomal cathepsin B; settings: cited from earlier work

CCN(CC)Cc1cc(Nc2ccnc3cc(Cl)ccc23)ccc1O [AQ, Amodiaquine]
CC50 [1]: > 60 µM | CC50 [2]: 50 µM | CC50 [3]: > 50 µM | EC50 [4]: 32 µM | binding to cathepsin B (STD difference spectrum) ([5]; 2 mM AQ, 20 μM cathepsin B): binding to the enzyme | STD effect, atom H4 ([5]; relative to the H4 atom (100%)): 100% | STD effect, atom H5 ([5]; relative to the H4 atom (100%)): 97% | sensitivity of cells to PA+FP59 [6]: less sensitive to treatment with PA+FP59 | EC50 [7]: 18.3 µM | cathepsin B activity in protein lysate from cells not exposed to drugs prior to lysis [8]: inhibited cathepsin B activity | inhibition of cathepsin B activity, purified human cathepsin B [9]: directly inhibit cathepsin B activity in a dose dependent manner | active caspase-1 (FLICA fluorescence) after LF-PA [10]: not detected | cleavage of MEK2 by LF in cells (immunoblot) [11]: completely prevented this effect | inhibition of Ebola virus pathogenicity in cells [12]: inhibit Ebola virus pathogenicity in cells | proteolytic activity of LF on MAPKK peptide (emission at 523 nm) [13]: does not block the proteolytic activity of LF | CC50 [14]: 31 µM | survival of RAW264.7 macrophages exposed to Clostridium difficile Toxin B [15]: increase survival | cell-associated Lysosensor fluorescence (endosomal acidification) [16]: markedly decreased cell-associated Lysosensor fluorescence | cathepsin B enzymatic activity in cells pre-treated with drug [17]: lost cathepsin B enzymatic activity in a dose dependent manner | protection of host cells against anthrax toxin killing (cell survival) [18]: increased survival; also recorded: completely protect | sensitivity of host cells to PA83+LF versus PA63+LF [18]: equally reduces sensitivity of host cells to both PA83+LF and PA63+LF treatments | binding of PA83 to cells and proteolytic processing of PA to PA63 [19]: did not block binding of PA83 to cells or block proteolytic processing of PA to generate PA63 | multiplex hit in JHCCL screen: inhibition of anthrax and diphtheria toxin cell killing [20]: inhibited anthrax and diphtheria toxins | survival of C32 cells exposed to diphtheria toxin [20]: increase survival | EC50 [21]: 3.8 µM | clinical signs of toxin challenge [22]: all of the animals in that group displayed classical signs of having undergone a toxin challenge | survival and toxin-associated symptoms [22]: survived; also recorded: protected all of the rats; also recorded: all survived without displaying toxin-associated symptoms

CCN(CC)CCCC(C)Nc1ccnc2cc(Cl)ccc12 (stereo not drawn) [CQ, Chloroquine]
cathepsin B activity in protein lysate from cells not exposed to drugs prior to lysis [8]: weaker inhibitors of cathepsin B activity | endosomal acidification [23]: prevent endosomal acidification | inhibition of cathepsin B activity, purified human cathepsin B [9]: weaker inhibitors of cathepsin B activity | inhibition of Ebola virus pathogenicity in cells [12]: inhibit Ebola virus pathogenicity in cells | cathepsin B enzymatic activity in cells pre-treated with drug [17]: weaker inhibitors of cathepsin B activity | multiplex hit in JHCCL screen: inhibition of anthrax and diphtheria toxin cell killing [20]: inhibited anthrax and diphtheria toxins

C=C[C@H]1C[N@@]2CC[C@H]1C[C@@H]2[C@@H](O)c1ccnc2ccccc12 [Cinchonine]
protection of host cells against anthrax toxin killing (cell survival) [18]: none of the other quinoline-containing antimalarial compounds, Cinchonine, Primaquine, and Quinidine, from JHCCL were active

CCNCc1cc(Nc2ccnc3cc(Cl)ccc23)ccc1O [DEAQ, N-Desethyl Amodiaquine]
cathepsin B activity in protein lysate from cells not exposed to drugs prior to lysis [8]: inhibited cathepsin B activity | inhibition of cathepsin B activity, purified human cathepsin B [9]: directly inhibit cathepsin B activity in a dose dependent manner | cathepsin B enzymatic activity in cells pre-treated with drug [17]: lost cathepsin B enzymatic activity in a dose dependent manner | protection of host cells against anthrax toxin killing (cell survival) [18]: increased survival | EC50 [21]: 3.6 µM

CCNCCCC(C)Nc1ccnc2cc(Cl)ccc12 (stereo not drawn) [DECQ, Desethyl-Chloroquine]
cathepsin B activity in protein lysate from cells not exposed to drugs prior to lysis [8]: weaker inhibitors of cathepsin B activity | inhibition of cathepsin B activity, purified human cathepsin B [9]: weaker inhibitors of cathepsin B activity | cathepsin B enzymatic activity in cells pre-treated with drug [17]: weaker inhibitors of cathepsin B activity

COc1cc(NC(C)CCCN)c2ncccc2c1 (stereo not drawn) [Primaquine]
protection of host cells against anthrax toxin killing (cell survival) [18]: none of the other quinoline-containing antimalarial compounds, Cinchonine, Primaquine, and Quinidine, from JHCCL were active

C=C[C@H]1C[N@@]2CC[C@H]1C[C@@H]2[C@@H](O)c1ccnc2ccc(OC)cc12 [Quinidine]
protection of host cells against anthrax toxin killing (cell survival) [18]: none of the other quinoline-containing antimalarial compounds, Cinchonine, Primaquine, and Quinidine, from JHCCL were active

CA-074
effect of cathepsin B inhibition on cellular sensitivity to LF-PA [24]: reduction of cellular sensitivity to LF-PA
